The values below come from ChEMBL document CHEMBL3046063, “Synthesis and antimicrobial activity of 5-chloroindoline-2,3-dione derivatives” (2012).

Holding throughout (assay type): functional
In one test the test system is Staphylococcus aureus. Nature of the test: Antimicrobial activity against Staphylococcus aureus ATCC 25923 after 24 hr by broth dilution method. The settings on record: ATCC 25923, 24 h. On the technique in general: In broth dilution the organism is exposed to a series of concentrations in liquid medium.
For a further test, the system named is Microsporum canis. Nature of the test: Antimicrobial activity against Arthroderma otae ATCC 11622 after 24 hr by broth dilution method. The following applies: ATCC 11622, 24 h.
Another test has as its system Staphylococcus hominis. Kind of test: Antimicrobial activity against Staphylococcus hominis ATCC 27844 after 24 hr by broth dilution method. The settings on record: ATCC 27844, 24 h.
The test system of the next test is Proteus mirabilis. Kind of test: Antimicrobial activity against Proteus mirabilis ATCC 49565 after 24 hr by broth dilution method. The settings on record: ATCC 49565, 24 h.
A further test deals with Alternaria alternata. Kind of test: Antimicrobial activity against Alternaria alternata ATCC 66868 after 24 hr by broth dilution method. The following applies: ATCC 66868, 24 h.
The test system of another test is Aspergillus awamori. Nature of the test: Antimicrobial activity against Aspergillus awamori ATCC 22342 after 24 hr by broth dilution method. The following applies: ATCC 22342, 24 h.
The next test relates to Fusarium solani. Kind of test: Antimicrobial activity against Fusarium solani ATCC 38136 after 24 hr by broth dilution method. The following applies: ATCC 38136, 24 h.
The test system of a further test is Micrococcus luteus. Kind of test: Antimicrobial activity against Micrococcus luteus ATCC 4698 after 24 hr by broth dilution method. The following applies: ATCC 4698, 24 h.
Another test concerns Aspergillus flavus. Nature of the test: Antimicrobial activity against Aspergillus flavus ATCC 15517 after 24 hr by broth dilution method. The following applies: ATCC 15517, 24 h.
For a further test, the system named is Aspergillus niger. Kind of test: Antimicrobial activity against Aspergillus niger ATCC 9142 after 24 hr by broth dilution method. The following applies: ATCC 9142, 24 h.
The subject of the next test is Bacillus spizizenii. Nature of the test: Antimicrobial activity against Bacillus subtilis subsp. spizizenii ATCC 6633 after 24 hr by broth dilution method. The settings on record: ATCC 6633, 24 h.
Another test deals with Aspergillus fumigatus. Nature of the test: Antimicrobial activity against Aspergillus fumigatus after 24 hr by broth dilution method.
In a further test the test system is Bacillus cereus. Kind of test: Antimicrobial activity against Bacillus cereus ATCC 11778 after 24 hr by broth dilution method. The following applies: ATCC 11778, 24 h.
A further test concerns Rhizoctonia solani. Nature of the test: Antimicrobial activity against Rhizoctonia solani ATCC 76131 after 24 hr by broth dilution method. The following applies: ATCC 76131, 24 h.
The test system of another test is Proteus vulgaris. Nature of the test: Antimicrobial activity against Proteus vulgaris ATCC 13315 after 24 hr by broth dilution method. The following applies: ATCC 13315, 24 h.
A further test has as its system Salmonella typhi. Kind of test: Antimicrobial activity against Salmonella enterica subsp. enterica serovar Typhi ATCC 19430 after 24 hr by broth dilution method. The following applies: ATCC 19430, 24 h.
The subject of a further test is Trichoderma viride. Kind of test: Antimicrobial activity against Hypocrea rufa ATCC 52440 after 24 hr by broth dilution method. The settings on record: ATCC 52440, 24 h.
The test system of the next test is Trichophyton longifusum. Nature of the test: Antimicrobial activity against Trichophyton longifusum ATCC 22397 after 24 hr by broth dilution method. The following applies: ATCC 22397, 24 h.
The test system of the next test is Pseudomonas aeruginosa. Nature of the test: Antimicrobial activity against Pseudomonas aeruginosa ATCC 10145 after 24 hr by broth dilution method. The settings on record: ATCC 10145, 24 h.
For another test, the system named is Candida albicans. Nature of the test: Antimicrobial activity against Candida albicans ATCC 10231 after 24 hr by broth dilution method. The following applies: ATCC 10231, 24 h.
Another test deals with Bacillus pumilus. Nature of the test: Antimicrobial activity against Bacillus pumilus ATCC 14884 after 24 hr by broth dilution method. The following applies: ATCC 14884, 24 h.
Test [1] relates to Staphylococcus epidermidis. Nature of the test: Antimicrobial activity against Staphylococcus epidermidis ATCC 12228 after 24 hr by broth dilution method. The settings on record: ATCC 12228, 24 h.
For a further test, the system named is Escherichia coli. Kind of test: Antimicrobial activity against Escherichia coli ATCC 25922 after 24 hr by broth dilution method. The following applies: ATCC 25922, 24 h.
Another test deals with Klebsiella pneumoniae. Nature of the test: Antimicrobial activity against Klebsiella pneumoniae ATCC 13883 after 24 hr by broth dilution method. The settings on record: ATCC 13883, 24 h.

In brackets after ≈: the same amount, converted by molar mass.

Take `O=C1Nc2ccc(Cl)cc2/C1=N/N1C(=O)C(Cl)C1c1ccco1` (stereo unspecified): the MIC against Staphylococcus aureus, with Microsporum canis, in the test with Staphylococcus hominis, in the test on Proteus mirabilis, in the test on Alternaria alternata and with Aspergillus awamori was 37.5 mg/L (≈ 107 µM) each time. For the same compound, the MIC (usually the least concentration at which growth counts as inhibited) against Fusarium solani stood at 37.5 mg/L (≈ 107 µM); against Micrococcus luteus, 37.5 mg/L (≈ 107 µM); against Aspergillus flavus it was 37.5 mg/L (≈ 107 µM); in the test with Aspergillus niger, 18.8 mg/L (≈ 53.5 µM); against Bacillus spizizenii, 75 mg/L (≈ 214 µM); in the test with Aspergillus fumigatus, 18.8 mg/L (≈ 53.5 µM). Besides, the MIC against Bacillus cereus was determined as 37.5 mg/L (≈ 107 µM); against Rhizoctonia solani it was 37.5 mg/L (≈ 107 µM); in the test with Proteus vulgaris, 37.5 mg/L (≈ 107 µM); with Salmonella typhi, 75 mg/L (≈ 214 µM); with Trichoderma viride, 37.5 mg/L (≈ 107 µM); against Trichophyton longifusum it was 18.8 mg/L (≈ 53.5 µM). Besides, the MIC in the test with Pseudomonas aeruginosa came out at 37.5 mg/L (≈ 107 µM); against Candida albicans, 18.8 mg/L (≈ 53.5 µM); against Bacillus pumilus, 37.5 mg/L (≈ 107 µM); in test [1], 75 mg/L (≈ 214 µM); in the test with Escherichia coli it was 37.5 mg/L (≈ 107 µM); with Klebsiella pneumoniae, 75 mg/L (≈ 214 µM).

As for `O=C1Nc2ccc(Cl)cc2/C1=N/N1C(=O)CSC1c1ccccc1` (stereo unspecified), the MIC in the test with Staphylococcus aureus was 37.5 mg/L (≈ 105 µM); in the test on Microsporum canis, 37.5 mg/L (≈ 105 µM); in the test on Staphylococcus hominis, 75 mg/L (≈ 210 µM); against Proteus mirabilis, 75 mg/L (≈ 210 µM); in the test with Alternaria alternata, 37.5 mg/L (≈ 105 µM); against Aspergillus awamori, 18.8 mg/L (≈ 52.4 µM). Also, the MIC with Fusarium solani is 18.8 mg/L (≈ 52.4 µM); against Micrococcus luteus, 37.5 mg/L (≈ 105 µM); against Aspergillus flavus, 37.5 mg/L (≈ 105 µM); against Aspergillus niger, 18.8 mg/L (≈ 52.4 µM); in the test with Bacillus spizizenii, 75 mg/L (≈ 210 µM); with Aspergillus fumigatus, 18.8 mg/L (≈ 52.4 µM). Further, the minimum inhibitory concentration (MIC) was found to be 37.5 mg/L (≈ 105 µM) with Bacillus cereus; 37.5 mg/L (≈ 105 µM) in the test with Rhizoctonia solani; 75 mg/L (≈ 210 µM) against Proteus vulgaris; 75 mg/L (≈ 210 µM) in the test with Salmonella typhi; 37.5 mg/L (≈ 105 µM) in the test on Trichoderma viride; 18.8 mg/L (≈ 52.4 µM) in the test on Trichophyton longifusum. The MIC in the test on Pseudomonas aeruginosa was determined as 37.5 mg/L (≈ 105 µM); with Candida albicans it was 9.37 mg/L (≈ 26.2 µM); in the test with Bacillus pumilus it was 75 mg/L (≈ 210 µM); in test [1], 37.5 mg/L (≈ 105 µM); in the test with Escherichia coli, 37.5 mg/L (≈ 105 µM); in the test on Klebsiella pneumoniae it was 37.5 mg/L (≈ 105 µM).

Regarding `O=C1Nc2ccc(Cl)cc2/C1=N/N1C(=O)C(Cl)C1c1ccc(Cl)cc1` (stereo unspecified), the MIC in the test on Staphylococcus aureus was found to be 18.8 mg/L (≈ 47.5 µM); in the test with Microsporum canis, 9.37 mg/L (≈ 23.7 µM); against Staphylococcus hominis, 9.37 mg/L (≈ 23.7 µM); against Proteus mirabilis, 18.8 mg/L (≈ 47.5 µM); in the test with Alternaria alternata, 9.37 mg/L (≈ 23.7 µM); in the test on Aspergillus awamori it was 4.68 mg/L (≈ 11.9 µM). The MIC against Fusarium solani was 4.68 mg/L (≈ 11.9 µM); against Micrococcus luteus, 18.8 mg/L (≈ 47.5 µM); against Aspergillus flavus it was 9.37 mg/L (≈ 23.7 µM); with Aspergillus niger, 4.68 mg/L (≈ 11.9 µM); in the test on Bacillus spizizenii, 9.37 mg/L (≈ 23.7 µM); in the test with Aspergillus fumigatus, 4.68 mg/L (≈ 11.9 µM). For the same compound, the MIC against Bacillus cereus stood at 18.8 mg/L (≈ 47.5 µM); against Rhizoctonia solani, 9.37 mg/L (≈ 23.7 µM); against Proteus vulgaris, 9.37 mg/L (≈ 23.7 µM); in the test on Salmonella typhi it was 9.37 mg/L (≈ 23.7 µM); against Trichoderma viride it was 4.68 mg/L (≈ 11.9 µM); in the test with Trichophyton longifusum it was 4.68 mg/L (≈ 11.9 µM). For the same compound, the MIC in the test with Pseudomonas aeruginosa is 18.8 mg/L (≈ 47.5 µM); against Candida albicans it was 4.68 mg/L (≈ 11.9 µM); against Bacillus pumilus, 9.37 mg/L (≈ 23.7 µM); in test [1], 18.8 mg/L (≈ 47.5 µM); against Escherichia coli, 18.8 mg/L (≈ 47.5 µM); in the test on Klebsiella pneumoniae, 9.37 mg/L (≈ 23.7 µM).

Consider `O=C1Nc2ccc(Cl)cc2/C1=N/N1C(=O)C(Cl)C1c1ccc([N+](=O)[O-])cc1` (stereo unspecified), for which the MIC against Staphylococcus aureus was 18.8 mg/L (≈ 46.3 µM); with Microsporum canis, 4.68 mg/L (≈ 11.5 µM); in the test on Staphylococcus hominis it was 18.8 mg/L (≈ 46.3 µM); against Proteus mirabilis it was 9.37 mg/L (≈ 23.1 µM); against Alternaria alternata, 4.68 mg/L (≈ 11.5 µM); in the test on Aspergillus awamori, 9.37 mg/L (≈ 23.1 µM). The MIC against Fusarium solani came out at 9.37 mg/L (≈ 23.1 µM); in the test with Micrococcus luteus it was 9.37 mg/L (≈ 23.1 µM); with Aspergillus flavus, 4.68 mg/L (≈ 11.5 µM); with Aspergillus niger it was 4.68 mg/L (≈ 11.5 µM); with Bacillus spizizenii it was 9.37 mg/L (≈ 23.1 µM); in the test on Aspergillus fumigatus it was 9.37 mg/L (≈ 23.1 µM). The MIC in the test with Bacillus cereus, against Rhizoctonia solani, against Proteus vulgaris, against Salmonella typhi, in the test with Trichoderma viride and in the test with Trichophyton longifusum was 9.37 mg/L (≈ 23.1 µM) in each case. For the same compound, the MIC against Pseudomonas aeruginosa is 9.37 mg/L (≈ 23.1 µM); against Candida albicans it was 4.68 mg/L (≈ 11.5 µM); in the test with Bacillus pumilus, 9.37 mg/L (≈ 23.1 µM); in test [1], 18.8 mg/L (≈ 46.3 µM); against Escherichia coli it was 18.8 mg/L (≈ 46.3 µM); against Klebsiella pneumoniae it was 9.37 mg/L (≈ 23.1 µM).
